Test systems include EKVX; OVCAR-4; LOX IMVI; MDA-N; OVCAR-3; MCF7; Malme-3M; SNB-19; SNB-75; ACHN; UO-31; A549; SK-OV-3; PC-3; HT-29; SK-MEL-28; DU-145; BT-549; SF-539; A498.
Common to all, as to assay: NCI tumour cell line growth inhibition, 48 h

Each structure is given as a SMILES string.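 In this assay, cells in 96-well plates receive the compound at five concentrations for 48 hours. Endpoints are linearly interpolated between the surrounding concentrations. At the GI50, growth is halved.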 Active and inactive are the calls of the source. Cut-off read from the data, not from the text of the source: active = GI50 up to about 1.1 µM and inactive = higher.

As for `Cc1cnc2sn(-c3ccc([N+](=O)[O-])cc3)c(=O)c2c1`, the GI50 was 74.1 µM (inactive) with EKVX; 94.8 µM (inactive) with OVCAR-4; 72.6 µM (inactive) with LOX IMVI; > 100 µM (inactive) in the test on MDA-N; 36.1 µM (inactive) in the test on OVCAR-3; > 100 µM (inactive) in the test on MCF7. The GI50 in the test on Malme-3M was > 100 µM (inactive); with SNB-19, 50.4 µM (inactive); in the test on SNB-75, 23.8 µM (inactive); in the test on ACHN, 29.4 µM (inactive); with UO-31, 74.6 µM (inactive); in the test with A549, 64.3 µM (inactive). Besides, the GI50 with SK-OV-3 is 29 µM (inactive); with PC-3, 66.2 µM (inactive); in the test with HT-29, > 100 µM (inactive); in the test with SK-MEL-28, > 100 µM (inactive); in the test with DU-145, 99.3 µM (inactive); with BT-549, 43.2 µM (inactive).

Take `Cc1nn(C(=O)c2ccc(Cl)cc2)c2c1C(c1ccco1)SC(=N)N2` (stereo not given): the GI50 in the test on EKVX, in the test on OVCAR-4, with SF-539, with LOX IMVI, in the test on MDA-N and in the test with OVCAR-3 was > 10 µM (inactive) throughout. Moreover, the GI50 in the test with MCF7, with SNB-19, in the test with SNB-75, in the test on ACHN, with A549 and with SK-OV-3 was > 10 µM (inactive) in each case. Moreover, the GI50 in the test on PC-3, in the test on HT-29, in the test on SK-MEL-28, in the test with DU-145 and in the test on BT-549 was > 10 µM (inactive) each time.

As for `Cc1cc2nc3c(C#N)c(-c4ccccc4)cc(Nc4cccc(C(F)(F)F)c4)n3c2cc1C`, the GI50 in the test on EKVX is 4.68 µM (inactive); in the test on OVCAR-4, 5.28 µM (inactive); in the test with SF-539, 3.78 µM (inactive); with LOX IMVI, 9.12 µM (inactive); in the test on MDA-N it was 4.04 µM (inactive); with OVCAR-3 it was 2.21 µM (inactive). The GI50 in the test on MCF7 is 3.91 µM (inactive); with Malme-3M it was 7.87 µM (inactive); in the test on SNB-19, 4.86 µM (inactive); in the test with SNB-75 it was 8.83 µM (inactive); in the test with ACHN, 3.4 µM (inactive); in the test with UO-31, 5.08 µM (inactive). Further, the GI50 is 6.05 µM (inactive) with A498; 3.18 µM (inactive) in the test on A549; 6.1 µM (inactive) with SK-OV-3; 2.56 µM (inactive) in the test on PC-3; 9.02 µM (inactive) in the test on SK-MEL-28; 10.5 µM (inactive) in the test with BT-549.

Turning to `[B].c1ccc([Si](OCCN2CC2)(c2ccccc2)c2ccccc2)cc1`, the GI50 is 12.8 µM (inactive) with EKVX; 10.8 µM (inactive) in the test on OVCAR-4; 14 µM (inactive) with SF-539; 14.5 µM (inactive) in the test with LOX IMVI; 14.9 µM (inactive) in the test with MDA-N; 16.4 µM (inactive) in the test with OVCAR-3. For the same compound, the GI50 is 14.5 µM (inactive) in the test with MCF7; 14.9 µM (inactive) in the test with Malme-3M; 0.436 µM (active) in the test with SNB-19; 14.8 µM (inactive) in the test on ACHN; 15.2 µM (inactive) in the test with UO-31; 11.9 µM (inactive) with A549. Further, the GI50 is 14.4 µM (inactive) with SK-OV-3; 13.5 µM (inactive) with PC-3; 14 µM (inactive) in the test on HT-29; 13.7 µM (inactive) in the test on DU-145; 17.5 µM (inactive) in the test on BT-549.

In the case of `C/N=c1/oc2ccccc2cc1C(N)=O`, the GI50 in the test with EKVX is 30.8 µM (inactive); with SF-539, > 100 µM (inactive); with LOX IMVI it was > 100 µM (inactive); with MDA-N, > 100 µM (inactive); with OVCAR-3, > 100 µM (inactive); in the test with MCF7, 87.7 µM (inactive). The GI50 in the test on SNB-19 is 56.4 µM (inactive); in the test on SNB-75, > 100 µM (inactive); in the test with ACHN, > 100 µM (inactive); with UO-31, 58.2 µM (inactive); in the test with A549, > 100 µM (inactive); in the test with SK-OV-3, > 100 µM (inactive). The GI50 with PC-3, in the test with HT-29, with SK-MEL-28, with DU-145 and in the test with BT-549 was > 100 µM (inactive) each time.

Take `CCOC(=O)C1C(=O)C=C(c2cc(C)ccc2O)CC1c1cccc(Br)c1` (stereo not given): the GI50 is 24 µM (inactive) with EKVX; 0.075 µM (active) in the test with OVCAR-4; 16.2 µM (inactive) in the test on SF-539; 15.6 µM (inactive) in the test on LOX IMVI; 4.05 µM (inactive) in the test on MDA-N; 21.5 µM (inactive) in the test with OVCAR-3. For the same compound, the GI50 is 14.9 µM (inactive) in the test with MCF7; 16.3 µM (inactive) in the test with Malme-3M; 13.4 µM (inactive) in the test with SNB-19; 18.7 µM (inactive) in the test with ACHN; 20.9 µM (inactive) in the test with UO-31; 20.1 µM (inactive) in the test on A549. In addition, the GI50 was 14.2 µM (inactive) in the test with SK-OV-3; 7.8 µM (inactive) in the test on PC-3; 18.9 µM (inactive) in the test with HT-29; 34.4 µM (inactive) in the test on DU-145; 24.9 µM (inactive) with BT-549.

Regarding `CC1=CC2(O)OC3(CC2=C(C)C)C(C)CCC13` (stereo not given), the GI50 with EKVX, in the test with OVCAR-4, with SF-539, in the test with LOX IMVI, in the test with MDA-N and in the test with OVCAR-3 was > 100 µM (inactive) each time. The GI50 is > 100 µM (inactive) in the test with MCF7; > 100 µM (inactive) in the test on Malme-3M; > 100 µM (inactive) with SNB-19; 58.5 µM (inactive) with SNB-75; > 100 µM (inactive) in the test with ACHN; 44.4 µM (inactive) in the test with UO-31. Moreover, the GI50 with A498, in the test with A549, in the test with SK-OV-3, with HT-29, in the test with DU-145 and with BT-549 was > 100 µM (inactive) each time.

For `Cc1cccc(-c2cc(O)c3cccnc3n2)c1`, the GI50 in the test on EKVX was 2.34 µM (inactive); in the test on OVCAR-4, 24 µM (inactive); in the test with SF-539, 0.92 µM (active); in the test with LOX IMVI, 0.512 µM (active); in the test on MDA-N, 0.0431 µM (active); in the test on OVCAR-3 it was 0.301 µM (active). Besides, the GI50 in the test on MCF7 was 0.378 µM (active); in the test with SNB-19, 1.69 µM (inactive); in the test with SNB-75 it was 1.26 µM (inactive); with ACHN, 18.7 µM (inactive); with UO-31 it was > 100 µM (inactive); with A549, 1.34 µM (inactive). Moreover, the GI50 in the test with SK-OV-3 was 0.569 µM (active); in the test on PC-3, 1.12 µM (inactive); in the test with HT-29 it was 0.264 µM (active); with SK-MEL-28, 0.406 µM (active); with DU-145 it was 3.94 µM (inactive); with BT-549, > 100 µM (inactive).

The record behind these values is ChEMBL document CHEMBL1201862, “PubChem BioAssay data set” (2004).
